This is an account of results in US11401286B2 (Tetra Discovery Partners, LLC, priority 2012, dated 2022).

Where a name gives a salt, the structure may show the parent alone.

For the first assay, the target named is PDE4D7 (Homo sapiens (Human), UniProt Q08499).
Chain of PDE4D7 (Q08499 other isoform, or with tags, fused parts or gaps): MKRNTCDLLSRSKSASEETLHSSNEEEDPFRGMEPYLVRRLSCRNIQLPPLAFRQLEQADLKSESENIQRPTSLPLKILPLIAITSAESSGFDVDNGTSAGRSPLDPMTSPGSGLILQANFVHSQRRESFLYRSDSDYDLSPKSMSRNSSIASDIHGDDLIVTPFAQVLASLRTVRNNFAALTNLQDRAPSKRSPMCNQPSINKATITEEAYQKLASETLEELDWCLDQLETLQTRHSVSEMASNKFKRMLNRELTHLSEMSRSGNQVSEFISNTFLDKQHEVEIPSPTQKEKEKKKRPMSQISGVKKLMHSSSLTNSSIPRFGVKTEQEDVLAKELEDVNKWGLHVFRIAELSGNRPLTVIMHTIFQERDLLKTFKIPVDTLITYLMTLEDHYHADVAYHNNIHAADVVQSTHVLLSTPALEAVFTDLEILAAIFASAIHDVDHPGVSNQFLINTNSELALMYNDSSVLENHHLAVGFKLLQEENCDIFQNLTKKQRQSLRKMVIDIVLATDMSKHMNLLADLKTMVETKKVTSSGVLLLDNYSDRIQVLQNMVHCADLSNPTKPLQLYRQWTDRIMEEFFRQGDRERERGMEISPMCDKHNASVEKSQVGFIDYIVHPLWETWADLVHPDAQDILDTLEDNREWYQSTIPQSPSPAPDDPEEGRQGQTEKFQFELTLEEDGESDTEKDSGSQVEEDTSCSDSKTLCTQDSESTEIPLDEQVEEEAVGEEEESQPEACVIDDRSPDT
Conditions: not given
`CCCNC(=O)Cc1ccc(Cc2cc(CC)nc(-c3cccc(Cl)c3)n2)cc1` [Example 193, 2-(4-((2-(3-Chlorophenyl)-6-ethylpyrimidin-4-yl)methyl)phenyl)-N-propylacetamide] came in with an IC50 of more than 1000 nM.

Still in this assay, the particulars now being: read-out: PDE4D7 IC50; PDE4D7 without asterisk.
As for `CCCc1nc(Nc2ccc(CC(=O)O)cc2)nc(-c2ccc(Cl)s2)n1` [Example 32, 2-(4-((4-(5-chlorothiophen-2-yl)-6-propyl-1,3,5-triazin-2-yl)amino)phenyl)acetic acid], the IC50 is more than 1000 nM.

In the case of `OB1OCc2cc(Nc3nc(-c4cccc(Cl)c4)nc4c3CCC4)ccc21` [Example 294, 2-(3-Chlorophenyl)-N-(1-hydroxy-3H-2,1-benzoxaborol-5-yl)-6,7-dihydro-5H-cyclopenta[d]pyrimidin-4-amine], the IC50 is more than 1000 nM. For the compound `CCc1c(C)nc(-c2ccc(Cl)s2)nc1Nc1ccc(Cc2nc(C(N)=O)c[nH]2)cc1` [Example 310, 2-[[4-[[2-(5-Chloro-2-thienyl)-5-ethyl-6-methyl-pyrimidin-4-yl]amino]phenyl]methyl]-1H-imidazole-4-carboxamide], the IC50 was more than 1000 nM. Still for that read-out and setting: then `NC(=O)Cc1ccc(Nc2nc(-c3cccc(Cl)c3)nc3c2S(=O)(=O)CC3)cc1` [Example 282, 2-(4-((2-(3-chlorophenyl)-5,5-dioxido-6,7-dihydrothieno[3,2-d]pyrimidin-4-yl)amino)phenyl)acetamide], with more than 1000 nM; and `OB1OCc2cc(Nc3nc(-c4ccc(Cl)s4)nc4c3CCC4)ccc21` [Example 293, 2-(5-Chloro-2-thienyl)-N-(1-hydroxy-3H-2,1-benzoxaborol-5-yl)-6,7-dihydro-5H-cyclopenta[d]pyrimidin-4-amine], with less than 1000 nM. `NC(=O)C[C@H]1CC[C@H](Nc2cc(-c3cccc(Cl)c3)nc3c2CCC3)CC1` [Example 96, Trans-2-(4-((2-(3-Chlorophenyl)-6,7-dihydro-5H-cyclopenta[b]pyridin-4-yl)amino)cyclohexyl)acetamide hydrochloride]: the IC50 is more than 1000 nM. On the same count and under the same terms, in the case of `Cc1nc(Nc2ccc(CC(=O)O)cc2)nc(-c2ccco2)n1` [Example 24, 2-(4-((4-(furan-2-yl)-6-methyl-1,3,5-triazin-2-yl)amino)phenyl)acetic acid] it was more than 1000 nM; in that of `OCC(O)c1ccc(Nc2cc(-c3cccc(Cl)c3)nc3c2CCC3)cc1` (stereo not drawn) [Example 115, 1-(4-((2-(3-Chlorophenyl)-6,7-dihydro-5H-cyclopenta[b]pyridin-4-yl)amino)phenyl)ethane-1,2-diol hydrochloride], more than 1000 nM; in that of `O=S1(=O)CCc2nc(-c3cccc(Cl)c3)nc(Nc3ccc(CCO)cc3)c21` [Example 281, 2-(3-Chlorophenyl)-4-((4-(2-hydroxyethyl)phenyl)amino)-6,7-dihydrothieno[3,2-d]pyrimidine 5,5-dioxide], less than 1000 nM. Consider `N#CNC(=O)Cc1ccc(Nc2nc(-c3cccc(Cl)c3)nc3c2S(=O)(=O)CCC3)cc1` [Example 315, 2-[4-[[2-(3-Chlorophenyl)-5,5-dioxo-7,8-dihydro-6H-thiopyrano[3,2-d]pyrimidin-4-yl]amino]phenyl]-N-cyano-acetamide], for which the IC50 is less than 1000 nM.

Turning to `NC(=O)Cc1ccc(Nc2cc(C(F)(F)F)nc(-c3cccc(Cl)c3)n2)cc1` [Example 220, 2-(4-((2-(3-Chlorophenyl)-6-(trifluoromethyl)pyrimidin-4-yl)amino)phenyl)acetamide], the IC50 was less than 1000 nM. On the same count and under the same terms, then `OCCCc1ccc(Nc2nc(-c3cccc(Cl)c3)nc3c2CCC3)cc1` [Example 163, 3-(4-((2-(3-Chlorophenyl)-6,7-dihydro-5H-cyclopenta[d]pyrimidin-4-yl)amino)phenyl)propan-1-ol], with less than 1000 nM; and `NC(=O)Cc1ccc(Nc2cc(-c3cc(Cl)ccc3Cl)nc3c2CCC3)cc1` [Example 155, 2-(4-((2-(2,5-Dichlorophenyl)-6,7-dihydro-5H-cyclopenta[b]pyridin-4-yl)amino)phenyl)acetamide hydrochloride], with more than 1000 nM. `CCc1nc(Oc2ccc(CC(N)=O)cc2)nc(-c2cccc(Cl)c2)n1` [Example 61, 2-(4-((4-(3-chlorophenyl)-6-ethyl-1,3,5-triazin-2-yl)oxy)phenyl)acetamide]: the IC50 was more than 1000 nM.

Consider `O=C(O)Cc1ccc(Nc2nc(-c3ccc(Cl)s3)nc(C3CC3)n2)cc1` [Example 34, 2-(4-(4-(5-chlorothiophen-2-yl)-6-cyclopropyl-1,3,5-triazin-2-ylamino)phenyl)acetic acid], for which the IC50 was more than 1000 nM. Still for that read-out and setting: in the case of `NC(=O)Cc1ccc(Nc2cc(SC3CCCC3)nc3c2CCC3)cc1` [Example 258, 2-(4-((2-(Cyclopentylthio)-6,7-dihydro-5H-cyclopenta[b]pyridin-4-yl)amino)phenyl)acetamide] it was more than 1000 nM.

For `O=C(O)CCc1ccc(Nc2nc(-c3ccc(Cl)s3)nc3c2CCC3)cc1` [Example 15, 3-[4-[[2-(5-Chloro-2-thienyl)-6,7-dihydro-5H-cyclopenta[d]pyrimidin-4-yl]amino]phenyl]propanoic acid], the IC50 was more than 1000 nM. On the same count and under the same terms, in the case of `CN(C)CCc1ccc(Nc2nc(-c3cccc(Cl)c3)nc3c2CCC3)cc1` [Example 169, 2-(3-Chlorophenyl)-N-(4-(2-(dimethylamino)ethyl)phenyl)-6,7-dihydro-5H-cyclopenta[d]pyrimidin-4-amine hydrochloride] it was more than 1000 nM; in that of `N#CCc1ccc(Nc2c(Cl)c(-c3cccc(Cl)c3)nc3c2CCC3)cc1` [Example 291, 2-(4-((3-Chloro-2-(3-chlorophenyl)-6,7-dihydro-5H-cyclopenta[b]pyridin-4-yl)amino)phenyl)acetonitrile hydrochloride], more than 1000 nM. For `CCc1c(C)nc(-c2ccc(Cl)s2)nc1Nc1ccc(Cn2cc(Cl)cn2)cc1` [Example 304, N-[4-[(4-Chloropyrazol-1-yl)methyl]phenyl]-2-(5-chloro-2-thienyl)-5-ethyl-6-methyl-pyrimidin-4-amine], the IC50 is more than 1000 nM.

Regarding `CCc1c(C)nc(-c2ccc(Cl)s2)nc1Nc1ccc(C2=C(O)CCC2=O)cc1` [Example 303, 2-[4-[[2-(5-Chloro-2-thienyl)-5-ethyl-6-methyl-pyrimidin-4-yl]amino]phenyl]-3-hydroxy-cyclopent-2-en-1-one], the IC50 is more than 1000 nM. Consider `NC(=O)Cc1ccc(Nc2nc(OC3CCCC3)nc3c2CCC3)cc1` [Example 232, 2-(4-((2-(Cyclopentyloxy)-6,7-dihydro-5H-cyclopenta[d]pyrimidin-4-yl)amino)phenyl)acetamide], for which the IC50 is more than 1000 nM. In the case of `OCCc1ccc(Nc2cc(C(F)(F)F)nc(-c3cccc(Cl)c3)n2)cc1` [Example 219, 2-(4-((2-(3-Chlorophenyl)-6-(trifluoromethyl)pyrimidin-4-yl)amino)phenyl)ethanol], the IC50 is more than 1000 nM. Same read-out and setting: then `CCc1cc(Cc2ccc(CC(=O)O)cc2)nc(C2CCCC2)n1` [Example 224, 2-(4-((2-Cyclopentyl-6-ethylpyrimidin-4-yl)methyl)phenyl)acetic acid], with more than 1000 nM; and `NC(=O)Cc1ccc(Nc2cc(-c3ccc(Cl)cc3)nc3c2CCC3)cc1` [Example 148, 2-(4-((2-(4-Chlorophenyl)-6,7-dihydro-5H-cyclopenta[b]pyridin-4-yl)amino)phenyl)acetamide hydrochloride], with more than 1000 nM; and `O=S1(=O)CCCc2nc(-c3ccccc3)nc(Nc3ccc(CCO)cc3)c21` [Example 268, 4-((4-(2-hydroxyethyl)phenyl)amino)-2-phenyl-7,8-dihydro-6H-thiopyrano[3,2-d]pyrimidine 5,5-dioxide], with less than 1000 nM. Turning to `CC(C)(C(N)=O)c1ccc(Cc2cc(-c3cccc(Cl)c3)nc3c2CCC3)cc1` [Example 127, 2-(4-((2-(3-Chlorophenyl)-6,7-dihydro-5H-cyclopenta[b]pyridin-4-yl)methyl)phenyl)-2-methylpropanamide hydrochloride], the IC50 is more than 1000 nM. On the same count and under the same terms, in the case of `OCCc1ccc(Nc2cc(-c3ccco3)nc3c2CCC3)cc1` [Example 239, 2-(4-((2-(furan-2-yl)-6,7-dihydro-5H-cyclopenta[b]pyridin-4-yl)amino)phenyl)ethanol hydrochloride] it was more than 1000 nM. On the same count and under the same terms, in the case of `OCCc1ccc(Nc2cc(-c3ccsc3)nc3c2CCC3)cc1` [Example 243, 2 2-(4-((2-(Thiophen-3-yl)-6,7-dihydro-5H-cyclopenta[b]pyridin-4-yl)amino)phenyl)ethanol] it was more than 1000 nM; in that of `CC(C)(C(=O)O)c1ccc(Cc2cc(-c3cccc(Cl)c3)nc3c2CCC3)cc1` [Example 126, 2-(4-((2-(3-Chlorophenyl)-6,7-dihydro-5H-cyclopenta[b]pyridin-4-yl)methyl)phenyl)-2-methylpropanoic acid hydrochloride], more than 1000 nM; in that of `CCc1nc(Nc2ccc(CCOC)cc2)nc(-c2cccc(Cl)c2)n1` [Example 82, 4-(3-Chlorophenyl)-6-ethyl-N-(4-(2-methoxyethyl)phenyl)-1,3,5-triazin-2-amine], less than 1000 nM. The same measure, in the same setting: then `NC(=O)Cc1ccc(Cc2nc(-c3cccc(Cl)c3)nc3c2S(=O)(=O)CCC3)cc1` [Example 277, 2-(4-((2-(3-Chlorophenyl)-5,5-dioxido-7,8-dihydro-6H-thiopyrano[3,2-d]pyrimidin-4-yl)methyl)phenyl)acetamide], with less than 1000 nM.

With `Cc1cccc(-c2cc(Nc3ccc(CC(N)=O)cc3)c3c(n2)CCC3)c1` [Example 159, 2-(4-((2-(m-Tolyl)-6,7-dihydro-5H-cyclopenta[b]pyridin-4-yl)amino)phenyl)acetamide hydrochloride], the IC50 is more than 1000 nM.

In the case of `OCCc1ccc(Nc2nc(-c3cccc(Cl)c3)nc3c2CCCC3)cc1` [Example 235, 2-(4-((2-(3-Chlorophenyl)-5,6,7,8-tetrahydroquinazolin-4-yl)amino)phenyl)ethanol], the IC50 is less than 1000 nM. As for `OCCc1ccc(Nc2nc(-c3cccc(Cl)c3)nc3c2CCC3)cc1` [Example 162, 2-(4-((2-(3-Chlorophenyl)-6,7-dihydro-5H-cyclopenta[d]pyrimidin-4-yl)amino)phenyl)ethanol], the IC50 is less than 1000 nM.

One may read the IC50 as the concentration needed to halve the response being measured.
